# Measurements from patent US11248024B2, “Noxa-derived, cell death-inducing peptide eMTD” (INDUSTRY-ACADEMIC COOPERATION FOUNDATION, CHOSUN UNIVERSITY, priority 2019, dated 2022).
# Ends that are not written are not given here. FAM = fluorescein
# Legend:
# [1] = test system: mitochondria isolated from livers of BalB/C mice; test: Mitochondrial swelling, absorbance at 540 nm / TEM; format: biochemical; conditions: peptides 25 μM, Ca2+ 200 μM, CsA 20 μM
# Method: First, livers excised from 6-week-old BalB/C mice were immersed in buffer (250 mM mannitol, […], 5 mM HEPES, pH 7.4, 0.1 mM PMSF and 4 rotenone) and completely homogenized using a Teflon Potter-Elvehjem grinder (Sigma). The ground liver was centrifuged at 1000×g for 10 min at 4° C. and the supernatants were centrifuged at 10,000×g for 10 min at 4° C. The pellets thus obtained were suspended in a regeneration buffer (250 mM sucrose, 10 mM HEPES, pH 7.4, 5 mM sodium succinate, 2 mM potassium phosphate, 0.1 mM PMSF, 25 μM EGTA, and 4 rotenone).
# The mitochondria thus obtained were treated with 25 μM of eMTD (SEQ ID NO: 1) or eMTDΔ4 (SEQ ID NO: 2), followed by reading absorbance at 540 nm to determine mitochondrial swelling.
# [2] = Two-step assay, damage on lipid membrane of liposomes (TbCl3/DPA fluorescence); format: biochemical; conditions: for Relative Fluorescence Intensity: liposomes, excitation 276 nm, read at 490 nm
# Method: In brief, DOPS, DOPE, and DOPC (Avanti Polar Lipids) were dissolved at the ratio of 2:4:3 in chloroform, followed by vaporization. The residue was again dissolved at the concentration of 2 mg/mL in TbCl3 buffer (15 mM TbCl3, 50 mM sodium citrate, 20 mM HEPES, 150 mM NaCl, pH 7.4). The lipid mixture was extruded by Mini extruder (Avanti Polar Lipids) with a 400 nm to prepare liposomes which were washed with washing buffer (150 mM NaCl, 20 mM HEPES, pH 7.4) and then resuspended in an assay buffer (50 DPA, […], 20 mM HEPES, pH 7.4). The suspension was plated into 96-well plates and treated with 0, 10, or 25 μM of eMTD (SEQ ID NO: 1) or eMTDΔ4 (SEQ ID NO: 2). After stimulation with 276 nm laser, fluorescence was read at 490 nm.
# HeLa = test: MTS assay, relative cell viability, HeLa; format: cell-based, human; conditions: for Viability (%): one hour treatment, Table 3
# Method: Individual cell lines (HeLa, CT26, and B16F10) were purchased from the Korean Cell Line Bank. Dulbecco's modified Eagle's medium (DMEM), trypsin-EDTA, fetal bovine serum (FBS), and Hank's balanced salt solution (HBSS) were products from Gibco (Thermo Fisher).
# Each of the cell lines was cultured in DMEM supplemented with 10% FBS in an incubator maintained at 37° C. and 5% 002.
# For use in assaying the peptides eMTD (SEQ ID NO: 1) and eMTDΔ4 (SEQ ID NO: 2) synthesized in Example 1 for activity of inducing cell death, the cell line HeLa was grown to about 90% confluency in 96-well plates. The cells were washed once with HBSS buffer before treatment with the peptides of the present disclosure eMTD (SEQ ID NO: 1) and eMTDΔ4 (SEQ ID NO: 2) at concentrations of 0, 20, and 40 for one hour. Thereafter, the cells were incubated with an MTS assay agent (Promega) for one hour, followed by reading absorbance to calculate relative viability of cells.
# Examination was made to see whether the peptide has the activity of inducing cell death in other cancer cell lines. In this regard, the cancer cell lines HeLa, CT26, and B16F10 were treated with eMTDΔ4 (SEQ ID NO: 2) at concentrations of 0, 20, and 40 μM.
# HeLa cells [3] = test: Time-lapse confocal microscopy of peptide entry, Mito-DsRed2 transfected cells; format: cell-based, human; conditions: images every five seconds for 10 min
# Method: In order to investigate the temporal order and cause relation between the introduction of eMTDΔ4 (SEQ ID NO: 2) and the damage of mitochondrial membrane and cell membrane, mitochondria were visualized by transfecting Mito-DsRed2 into HeLa cells one day before the experiment. Thereafter, eMTDΔ4 (SEQ ID NO: 2)-FAM was applied to the HeLa cells images of which were then taken every five seconds for 10 min under a confocal microscope.
# HeLa cells [4] = test: Intracellular localization of FAM-labelled peptide, confocal images (TOM20, DAPI); format: cell-based, human; conditions: 5 and 10 min incubation, fixed
# Method: In order to investigate the source that allowed the intracellular calcium influx observed in Example 4, examination was made of the site at which the peptide eMTDΔ4 (SEQ ID NO: 2) acts. In this regard, the fluorescent tracer fluorescein was labeled to the C-terminal of the peptide eMTDΔ4 (SEQ ID NO: 2) (eMTDΔ4 (SEQ ID NO: 2)-FAM). Then, HeLa cells grown on Lab-Tek chamber glass were incubated with eMTDΔ4 (SEQ ID NO: 2)-FAM for 5 and 10 min before fixation with 1% paraformaldehyde.
# Mitochondria were visualized using an antibody to TOM20, which localizes to the outer membrane of the mitochondrion because MTD (SEQ ID NO: 3) is known to migrate to mitochondria, while nuclei were visualized using DAPI.
Molecule,"Mitochondrial swelling, relative absorbance at 540 nm ([1]; Minute 0)","Mitochondrial swelling, relative absorbance at 540 nm ([1]; Minute 10)","Mitochondrial swelling, relative absorbance at 540 nm ([1]; Minute 20)","Mitochondrial swelling, relative absorbance at 540 nm ([1]; Minute 30)","Mitochondrial swelling, relative absorbance at 540 nm ([1]; Minute 40)","Mitochondrial swelling, relative absorbance at 540 nm ([1]; Minute 50)","Mitochondrial swelling, relative absorbance at 540 nm ([1]; Minute 60)",liposome lipid membrane damage (in words) ([2]; FIGS. 10A to 10C and Table 6),Relative Fluorescence Intensity ([2]; 10 μM),Relative Fluorescence Intensity ([2]; 25 μM),Viability (%) (HeLa; 20 μM),Viability (%) (HeLa; 40 μM),cell death activity (in words) (HeLa; FIG. 1 and Table 3),entry of peptide into cells (HeLa cells [3]),intracellular localization (HeLa cells [4]),mitochondrial morphology (HeLa cells [4])
"[Ca+2] [Ca, reference compound]",100%,77%,75%,73%,72%,70%,70%,,,,,,,,,
KLNFRQKLLNLISKLFCSGT [eMTD],100%,86%,78%,71%,68%,68%,67%,higher fluorescence intensity was detected,27%,55%,61%,63%,potent cell death activity,,,
"MPGKKARKNAQPSPARAPAELEVECATQLRRFGDKLNFRQKLLNLISKLFCSGT (cysteines drawn unpaired) [fl-Noxa, reference compound]",,,,,,,,,,,101%,106%,,,,
eMTDΔ4-FAM: fluorescent tracer fluorescein labeled to the C-terminal of the peptide eMTDΔ4 (KLNFRQKLLNLISKLF-{FAM}),,,,,,,,,,,,,,diffused into the cytosol through the cell membrane bubbles,consistent with the visualized positions of mitochondria,mitochondrial fragmentation was observed
